Each structure is given as a SMILES string.

This is an account of results in paper PMC8474116, “Discovery of Novel Acetamide-Based Heme Oxygenase-1 Inhibitors with Potent In Vitro Antiproliferative Activity” (Journal of Medicinal Chemistry, 2021).

Test [1] deals with T1, HO-1 (Rattus norvegicus, UniProt P06762).
T1 construct: selected to use the most native (i.e., closest to in vivo) forms of HO-1 and HO-2; from tissue; host or cells: rat spleen (male Sprague-Dawley), microsomal fraction
T1 sequence (P06762 1-289): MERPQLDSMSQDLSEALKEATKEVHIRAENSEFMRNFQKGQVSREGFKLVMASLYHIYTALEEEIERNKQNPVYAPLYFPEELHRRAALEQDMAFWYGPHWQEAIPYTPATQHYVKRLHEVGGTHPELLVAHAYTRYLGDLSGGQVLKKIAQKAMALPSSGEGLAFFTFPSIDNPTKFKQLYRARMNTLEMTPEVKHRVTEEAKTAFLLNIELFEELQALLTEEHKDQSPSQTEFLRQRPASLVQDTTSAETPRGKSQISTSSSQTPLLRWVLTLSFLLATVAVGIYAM
Kind of test: HO-1 enzymatic activity, rat spleen microsomal fraction (bilirubin formation). Format: biochemical. The following applies: for IC50: rat spleen microsomal fraction, mean of triplicate ± SD; for SI (HO-2/HO-1): ratio of HO-2 and HO-1 IC50. On the procedure:
(§1) HO-1 and HO-2 were obtained, respectively, from the rat spleen and brain as the microsomal fraction prepared by differential centrifugation; the dominance of HO-1 protein in the rat spleen and HO-2 in the rat brain has been well documented.[24] These particular microsomal preparations were selected to use the most native (i.e., closest to in vivo) forms of HO-1 and HO-2. Spleen and brain (Sprague-Dawley rats) microsomal fractions were prepared according to the procedure outlined by Ryter et al.[2] The experiments reported in the present paper complied with the current Italian law and met the guidelines of the Institutional Animal Care and Use Committee of the Ministry of Health (Directorate General for Animal Health and Veterinary Medicines, Italy) “Dosing of enzymatic activities in rat microsomes” (2018–2022), project code 02769.N.VLY. The experiments were performed in male Sprague-Dawley albino rats (150 g body weight and age 45 d). They had free access to water and were kept at room temperature with a natural photoperiod (12 h light–12 h dark cycle). For measuring HO-1 and HO-2 activities, each rat was sacrificed and their spleen and brain were excised and weighed. A homogenate (15%, w/v) of spleens and brains pooled from four rats was prepared in ice-cold HO-homogenizing buffer (50 mM Tris buffer, pH 7.4, containing 0.25 M sucrose) using a Potter–Elvehjem homogenizing system with a Teflon pestle. The microsomal fraction of rat spleen and brain homogenate was obtained by centrifugation at 10 000g for 20 min at 4 °C, followed by centrifugation of the supernatant at 100 000g for 60 min at 4 °C. The 100 000g pellet (microsomes) was resuspended in 100 mM of potassium phosphate buffer, pH 7.8, containing 2 mM MgCl2 with a Potter–Elvehjem homogenizing system. The rat spleen and brain microsomal fractions were divided into equal aliquots, placed into microcentrifuge tubes, and stored at −80 °C for up to 2 months.
(§2) Liver cytosol has been used as a source of biliverdin reductase. Rat liver was perfused through the hepatic portal vein with cold 0.9% NaCl; then, it was cut and flushed with 2 × 20 mL of ice-cold PBS to remove all of the blood. Liver tissue was homogenized in 3 volumes of a solution containing 1.15% KCl w/v and Tris buffer 20 mM, pH 7.8 on ice. Homogenates were centrifuged at 10 000g for 20 min at 4 °C. The supernatant was decanted and centrifuged at 100 000g for 1 h at 4 °C to sediment the microsomes. The 100 000g supernatant was saved and then stored in small amounts at −80 °C after its protein concentration was measured.
(§3) The HO-1 and HO-2 activities were determined by measuring the bilirubin formation using the difference in absorbance at 464–530 nm, as described by Ryter et al.[2] Reaction mixtures (500 μL) consisted of 20 mM of Tris–HCl, pH 7.4, (1 mg/mL) microsomal extract, 0.5–2 mg/mL of biliverdin reductase, 1 mM of NADPH, 2 mM of glucose 6-phosphate (G6P), 1 U of G6P dehydrogenase, 25 μM of hemin, and 10 μL of DMSO (or the same volume of DMSO solution of test compounds to a final concentration of 100, 10, and 1 μM). Incubations were carried out for 60 min at 37 °C in a circulating water bath in the dark. Reactions were stopped by adding the same volume of chloroform. After recovering the chloroform phase, the amount of bilirubin formed was measured with a double-beam spectrophotometer as OD464–530 nm (extinction coefficient, 40 mM/cm^–1 for bilirubin). One unit of the enzyme was defined as the amount of enzyme catalyzing the formation of 1 nmol of bilirubin/mg protein/h.

Test [2] concerns the target T2, HO-2 (Rattus norvegicus, UniProt P23711).
T2 construct: selected to use the most native (i.e., closest to in vivo) forms of HO-1 and HO-2; from tissue; host or cells: rat brain (male Sprague-Dawley), microsomal fraction
T2 sequence (P23711 1-315): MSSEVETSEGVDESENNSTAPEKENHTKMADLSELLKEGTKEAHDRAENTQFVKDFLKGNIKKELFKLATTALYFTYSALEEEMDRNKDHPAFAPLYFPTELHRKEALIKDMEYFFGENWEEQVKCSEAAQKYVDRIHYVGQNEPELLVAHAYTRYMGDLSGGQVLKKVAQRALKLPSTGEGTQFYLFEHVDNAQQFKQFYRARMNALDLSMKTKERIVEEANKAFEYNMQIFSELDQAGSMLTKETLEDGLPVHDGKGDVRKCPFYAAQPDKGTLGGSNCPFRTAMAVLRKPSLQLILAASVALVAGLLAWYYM
Kind of test: HO-2 enzymatic activity, rat brain microsomal fraction (bilirubin formation). It is filed as biochemical. The note with it: mean of triplicate ± SD. The procedure:
as §1, §2, §3

The subject of test [3] is U87MG cells. Kind of test: MTT cell viability assay, U87MG. Format: cell-based, human. The following applies: 48 h. On the procedure: (§4) Experiments were performed on human GBM cell lines U87MG (ATCCC number #HTB-14) and A172 (ATCCC #CRL-1620) on DU145 (ATCC HTB-81) and human lung adenocarcinoma A549 (ATCC CCL-185-LUC2). All cell lines were obtained from the American Type Culture Collection (ATCC, Rockville, MD). Cells were grown in Dulbecco’s modified Eagle’s medium (DMEM) supplemented with 10% of heat-inactivated fetal bovine serum (FBS), 100 U/mL of penicillin, and 100 μg/mL of streptomycin (Sigma-Aldrich, Steinheim, Germany). Cells were incubated at 37 °C in a humidified atmosphere with 5% CO2.
(§5) The effect of selected compounds 7i and 7l–p on cell viability was assessed by performing an MTT assay. Cells were seeded into 96-well plates at a density of 7 × 10^3 cells/well in 100 μL of culture medium. After 24 h, cells were treated with selected compounds at three different concentrations (1 μM, 10 μM, and 50 μM) for 48 h. Following treatments, 0.5 mg/mL of 3-[4,5-dimethylthiazol-2-yl]-2,5-diphenyltetrazolium bromide (MTT) (Sigma-Aldrich) was added to each well and incubated for 4 h at 37 °C. Finally, dimethyl-sulfoxide (DMSO) was used to dissolve formazan salts, and absorbance was measured at 570 nm in a microplate reader (Biotek Synergy-HT). Eight replicate wells were used for each group.

The subject of test [4] is A172 cells. The test can be described thus: MTT cell viability assay, A172. It is filed as cell-based, human. The following applies: 48 h. On the procedure: as §4, §5
(Formazan colour is commonly taken as a measure of viable cells.)

[5] abbreviates: all tested concentrations (1, 10, 50 μM).
Setting [6] is: at both concentrations 1 and 10 μM.

One may read the IC50 as the concentration that gives 50% inhibition. A higher IC50 goes with a need for much substance. As for `CN(C(=O)Cn1ccnc1)C(c1ccccc1)c1ccc(Cl)cc1` (stereo not shown) [7l, N-((4-Chlorophenyl)(phenyl)methyl)-2-(1H-imidazol-1-yl)-N-methylacetamide], in test [1], the “HO-1 vs HO-2 selectivity (in words)” value was “superimposable HO-1 and HO-2 IC50 values”; inhibition was half-maximal at 950 ± 40 nM (IC50); the “SI (HO-2/HO-1)” value is on record as 1.3. Also, in test [2], the IC50 worked out at 1200 ± 70 nM. The cell viability reduction result in test [3] (at all of the tested concentrations (1, 10, 50 μM)) is “more than 60%”. For the same compound, the “cell viability reduction (in words)” value in test [4] (setting [5]) was “remarkable reduction of cell viability”.

In the case of `CN(C(=O)Cn1ccnc1)C(c1ccccc1)c1ccc(I)cc1` (stereo not shown) [7n, 2-(1H-Imidazol-1-yl)-N-((4-iodophenyl)(phenyl)methyl)-N-methylacetamide], in test [1], the “fold more selective for the inducible isoform (HO-1 over HO-2)” value was “about 48 fold”, the IC50 amounted to 950 ± 90 nM and the “SI (HO-2/HO-1)” value came to 48.3. This compound also registered an IC50 in test [2] of 45900 ± 1670 nM. In test [3] (setting [6]), the cell viability reduction result was “more than 30%”. Further, in test [4] (10 μM), the “cell viability reduction (in words)” value is “milder activity”. Further, the “cell viability reduction (in words)” value in test [4] (50 μM) is on record as “only at 50 μM”.

In the case of `CN(C(=O)Cn1ccnc1)C(c1ccccc1)c1ccc(OCc2ccccc2)cc1` (stereo not shown) [7o, N-((4-(Benzyloxy)phenyl)(phenyl)methyl)-2-(1H-imidazol-1-yl)-N-methylacetamide], in test [1], the “fold more selective for the inducible isoform (HO-1 over HO-2)” value was 9 fold, it took 1200 ± 110 nM to reach half-maximal inhibition (IC50) and the “SI (HO-2/HO-1)” value is 9.3. The compound further came in with an IC50 in test [2] of 11200 ± 180 nM. Further, in test [3] (setting [6]), the cell viability reduction result was “around 20%”. Besides, the “cell viability reduction (in words)” value in test [4] (setting [5]) was “remarkable reduction of cell viability”.
